Measured values published in US11992011B2, “Compounds for controlling plant pathogens” (VIB VZW, priority 2017, dated 2024).

Legend:
[1] = test system: spring wheat (Triticum aestivum cv. Fielder); assay: Yield and fertility in pathogen-free spring wheat (Example 2); details: 300 μM foliar spray three times; vs. control
Method: For Example 2, the spring wheat cultivar Fielder was used. Seeds were obtained from plants grown in the greenhouse complex of the VIB (Zwijnaarde, Belgium). Seeds were sown directly in potting soil (four seeds to a pot, thinned to three plants per pot after emergence) and placed in a growth chamber at 21° C. with 16 hours per day of light. These plants were grown until harvest; they were sprayed three times with the compounds of the invention at a concentration of 300 μM using the protocol described in the chemicals section. Spraying took place 14 and 21 days after emergence and a final time at heading.
In all cases model assumptions were verified using diagnostic plots (residuals, QQ-plot, scale-location and residuals-leverage). Outliers were removed only if they were outliers both in the statistical sense and if there was a biological reason for removal (e.g. the plant was stunted or developed a secondary infection).
To determine the effects of C4H inhibition on yield and fertility, spring wheat (Triticum aestivum cv. Fielder) was grown in a pathogen-free growth chamber until maturity and treated with a control or C4H inhibitor-containing foliar spray at regular intervals. At harvest, the number of ears per plant, the seed mass, the size of the seeds and the germination ability of the freshly harvested seeds were measured. Seed size was measured using the stacking density of the seed as a proxy measure; if a given seed mass takes up a greater volume, then the individual seeds must be larger.

[2] = test system: Fusarium solani (isolate Fso18); assay: Onion seedling emergence with PA seed coating, Fusarium solani (Example 12); assay type: in vivo; details: onion seeds with 300 μM PA coating vs mock coating
Method: Seed coatings were applied by dipping seeds in a coating solution containing 20 g/I high viscosity carboxymethylcellulose (Sigma-Aldrich, Saint Louis, USA) in distilled water as well as 300 μM of the target compound. Seeds were then dried overnight at room temperature.
Onion seeds were coated with a 300 μM PA solution as outlined in the chemical treatments section. F. oxysporum (isolate Foc26), F. solani (isolate Fso18) and F. proliferatum (isolate Fpr18) were originally extracted from Vietnamese onion fields. Inoculum was obtained as described in the fungal culture section. The inoculum was diluted to a concentration of 1.0×10^7 spores per ml with sterile PBS buffer. The coated seeds were then soaked in the spore solution for one hour. To avoid excessive PA leaching from the PA coating, 100 μM of PA was added to the spore solution.
After soaking in the PA solution, seeds were left to dry for thirty minutes. Twenty seeds were then sowed per pot in potting soil; three pots were used per treatment and per fungal isolate (for a total of 60 seeds per treatment-isolate combination). The pots were covered in cling film and left on a window sill at room temperature. After eight and ten days, the number of germinated seedlings per pot was counted.
Germination experiments were analyzed by fitting a three-parameter log-logistic model as implemented in the R drc package.

[3] = test system: J2 juveniles of Heterodera schachtii; assay: In vitro nematode toxicity assay, H. schachtii J2 (Example 11); details: PA 100 μM, Vertimec 0.02 v/v % abamectin, control 83.1±7.6
Method: J2 juveniles of Meloidogyne graminicola and Heterodera schachtii were isolated from Echinocloa cruss-galli roots and sugar beet roots respectively. Per treatment and species combination, 300 nematodes were isolated and divided over six wells that contained 1.5 ml of either sterilized tap water, a 100 μM C4H inhibitor solution or a 0.02 v/v % solution of the nematicide abamectin (Vertimec®, Syngenta AG). The nematodes were incubated in the dark on a slow-moving rotary shaker (50 rpm) and the number of living nematodes was counted regularly using a binocular microscope.
To rule out definitively that the compounds of the invention operate through direct toxicity to nematodes, an in vitro toxicity assay on J2 juveniles of the nematodes Meloidogyne graminicola and Heterodera schachtii was performed.
First, survival upon exposure to the C4H inhibitor piperonylic acid (PA) was compared to a negative control (tap water) and a positive control, the commercial nematicide Vertimec (0.02% Abamectin). A detailed survival curve is shown in FIG. 12a (M. graminicola) and FIG. 12b (H. schachtii).

Pratylenchus penetrans = Pratylenchus penetrans infection in wheat cv. Sahara (Example 10); assay type: in vivo; details: PA foliar spray
Method: For Examples 1, 5 and 10, seeds of the winter wheat cultivar Sahara (Aveve Agrarisch, Landen, Belgium) were used. Seeds were washed in a 10% ethanol solution to remove any residual traces of fungicide and then germinated on wet paper at room temperature for four days; seeds were transferred to SAP tubes and placed in a growth chamber (25° C., 16 hours per day of light). Plants were watered with 8 ml of half-strength Hoagland solution every two days for the first ten days and with 8 ml of full strength Hoagland solution every two days afterwards.
A pure culture of P. penetrans grown on carrot disks was kindly provided by Giuseppi Lucarelli (Horto Service, Noicattaro, Italy). The nematodes were multiplied by inoculating approximately 100 nematodes on a sterilized carrot disk, placing this disk in a sealed petri dish and incubating the dish at 24° C. for six weeks in the dark. Carrots were sterilized by washing and peeling them, then dipping them in ethanol and finally burning the ethanol off in a Bunsen burner.
(§1) Unless otherwise mentioned, all chemicals for nematode experiments were applied as a foliar spray consisting of the target compound at a concentration of 300 μM together with 0.1% (v/v) Tween 20 surfactant (Calbiochem) in distilled water. Again unless otherwise mentioned, all treatments for the nematode experiments were carried out three times: one and eight days before pathogen inoculation and seven days after pathogen inoculation. In all cases, plants were sprayed until run-off with an atomizer.
Infection experiments with P. penetrans were performed by inoculating host plants 14 days after transfer to SAP by introducing 500 nematodes to their root system using a micro pipette. Plants were harvested 31 days after inoculation. At this point, the plants were phenotyped. Lesions were counted manually using a magnifying glass after washing and spreading open the root system. Nematodes were counted by macerating the root systems with a kitchen blender, placing a root system in 30 ml of autoclaved tap water for 24 hours and finally counting the number of nematodes in four 500 μl aliquots from each 30 ml root suspension under a binocular microscope.

Meloidogyne graminicola = Meloidogyne graminicola infection in rice cv. Kitaake, additional C4H inhibitors (Example 6); assay type: in vivo; details: foliar spray, N=8
Method: as §1
Infection experiments with M. graminicola were performed by inoculating host plants 14 days after transfer to SAP by introducing the desired amount of J2 juveniles next to the root system using a micro pipette. Rice plants (cv. Nipponbare or Kitaake) were inoculated with 250 J2 juveniles per plant; wheat plants (cv. Sahara) were inoculated with 600 J2 juveniles per plant. Plants were harvested 14 days after inoculation. At this point, the plants were phenotyped by measuring the shoot and root length with a ruler, counting the number of adventitious roots and in some experiments by measuring leaf area using the EasyLeafArea software (Easlon and Bloom, 2014) and by determining shoot dry mass after 72 hours of drying in an oven at 70° C. Root systems were then stained in acid fuchsine as described in (Byrd et al., 1983) and left to destain in glycerol with 1 ml/l fuming HCl added for approximately ten days. The number of galls and nematodes was then counted using a binocular microscope.
Four different C4H inhibitors were used: piperonylic acid (PA), piperine (PIP), 4-propynyloxybenzoic acid (4PB) and 3-(4-pyridyl)acrylic acid (3PA).

[4] = test system: tobacco cell cultures (Nicotinium tabacum BY2); details: Schoch et al., 2002; cited from earlier work
[5] = infected wheat, mean ± SD, n = 8

SMILES: O=C(O)c1ccc2c(c1)OCO2 [PA, Piperonylic acid]
- Total yield (seed mass) [1]: not significantly different
- germination after fourteen days of freshly harvested seeds [1]: not significantly different
- mean number of ears per plant [1]: the same in all treatments
- seed size (stacking density) [1]: no effect
- improvement of seedling emergence [2]: +27%
- survival after 24 hours of exposure [3]: 92.8±2.5%
- Number of lesions (Pratylenchus penetrans; [5]): 14.4 ± 6.8
- Number of nematodes per root system (Pratylenchus penetrans; [5]): 165.6 ± 61.1
- change of mean number of P. penetrans nematodes found in the root system (Pratylenchus penetrans; wheat, vs control): −32%
- change of mean number of root lesions in the host plant (Pratylenchus penetrans; wheat, vs control): −39%
- reduction in the number of galls compared to the control group (Meloidogyne graminicola): −40%
- accumulation of salicylic acid [4]: induces the accumulation of the defense hormone salicylic acid
